Patent US11000033B2, “Ketone or oxime compound, and herbicide” (NISSAN CHEMICAL CORPORATION, priority 2014, dated 2021)

Key:
Type in all cases: in vivo
rapeseed = test: Test Example 5: effect on crop by foliage application, plastic box (symbol g); details: 320 g/ha, 3 weeks after application
In short: (§1)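 Soil: sterilized diluvial. Container: plastic box, 21 × 13 cm, 7 cm deep. Sowing: spot-like, ~1.5 cm cover. Growth: greenhouse, 25° C. to 30° C.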

Setaria viridis = test: Test Example 4: herbicidal effect by soil treatment (symbol G)
In short: (§2)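 Seeds were sown in sterilized diluvial soil, covered with about 1.5 cm of soil, and the soil surface was sprayed with a water-diluted emulsion of the compound at a predetermined rate. Plants grew in a greenhouse at 25° C. to 30° C.; effects were scored visually 3 weeks after application.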

[1] = test system: Echinochloa oryzacola Vasing.; test: Test Example 2: herbicidal activity, application during weed generation in submerged conditions (symbol A); details: Table 23; application herbicide amount 320 g/ha; grade 0-5 by criteria of Test Example 1
In short: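 Visual herbicidal ratings, taken three weeks after dosing, reflect post-emergence water-surface application to seedlings at one to two leaves. Conditions: co-sown weeds in alluvial soil flooded to 4 cm, greenhouse held at 25° C. to 30° C.; compound given as water-diluted emulsion at a fixed herbicide amount.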

corn = test: Test Example 5: effect on crop by foliage application, plastic box (symbol c); details: 320 g/ha, 3 weeks after application
In short: as §1

Monochoria vaginalis = test: Test Example 1: herbicidal activity, application before weed generation in submerged conditions (symbol C); details: application herbicide amount 320 g/ha
In short: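 Compound emulsion was diluted to a set herbicide amount and applied to the water surface on the sowing day, into submerged (4 cm) alluvial-soil pots sown with mixed weed seeds and transplanted 2.5-leaf rice. Pots were held in a 25–30 °C greenhouse, and weeds were scored 0–5 by herbicidal ratio after 3 weeks.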

Amaranthus retroflexus = test: Test Example 5: herbicidal effect by foliage application, plastic box (symbol N); details: 320 g/ha, 3 weeks after application
In short: (§3)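 Effect is rated 3 weeks after a foliar spray of water-diluted emulsion concentrate at a predetermined herbicide amount. Plants had grown 14 days in a 25° C. to 30° C. greenhouse from seed in sterilized diluvial soil.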

beet = test: Test Example 5: effect on crop by foliage application, plastic box (symbol f); details: 320 g/ha, 3 weeks after application
In short: as §1

Apera spica-venti = test: Test Example 5: herbicidal effect by foliage application, plastic box (symbol L); details: 320 g/ha, 3 weeks after application
In short: as §3

Leptochloa chinensis = test: Test Example 3: herbicidal effect by foliage application, Wagner pot (symbol D); details: application herbicide amount 320 g/ha
In short: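 Herbicidal activity was rated three weeks after a foliar spray of diluted emulsion concentrate, applied at a predetermined dose to plants grown for 14 days from seed in waterlogged alluvial soil within a 25–30 °C greenhouse.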

soybean = test: Test Example 5: effect on crop by foliage application, plastic box (symbol d); details: 320 g/ha, 3 weeks after application
In short: as §1

Abutilon theophrasti = test: Test Example 5: herbicidal effect by foliage application, plastic box (symbol M); details: 320 g/ha, 3 weeks after application
In short: as §3

Chenopodium album [2] = test: Test Example 4: herbicidal effect by soil treatment (symbol O); details: application herbicide amount 320 g/ha
In short: as §2

Chenopodium album [3] = test: Test Example 5: herbicidal effect by foliage application, plastic box (symbol O); details: 320 g/ha, 3 weeks after application
In short: as §3

Digitaria ciliaris = test: Test Example 4: herbicidal effect by soil treatment (symbol F)
In short: as §2

Galium spurium = test: Test Example 5: herbicidal effect by foliage application, plastic box (symbol Q); details: 320 g/ha, 3 weeks after application
In short: as §3

[4] = application herbicide amount 320 g/ha

| Structure (SMILES) | g: rapeseed, effect on crop grade (rapeseed) | G: Setaria viridis, herbicidal effect grade (Setaria viridis; [4]) | Herbicidal effect grade, A: Echinochloa oryzacola Vasing. [1] | c: corn, effect on crop grade (corn) | Herbicidal effect grade, C: Monochoria vaginalis (Monochoria vaginalis) | N: Amaranthus retroflexus, herbicidal effect grade (Amaranthus retroflexus) | f: beet, effect on crop grade (beet) | L: Apera spica-venti, herbicidal effect grade (Apera spica-venti) | herbicidal effect on D (Leptochloa chinensis), grade 0-5 (Leptochloa chinensis) | d: soybean, effect on crop grade (soybean) | M: Abutilon theophrasti, herbicidal effect grade (Abutilon theophrasti) | O: Chenopodium album, herbicidal effect grade (Chenopodium album [2]) | O: Chenopodium album, herbicidal effect grade (Chenopodium album [3]) | F: Digitaria ciliaris, herbicidal effect grade (Digitaria ciliaris; [4]) | also measured |
| --- | --- | --- | --- | --- | --- | --- | --- | --- | --- | --- | --- | --- | --- | --- | --- |
| CON=C(C)CC1CC(O)=C(c2c(C)cc(-c3ccc(C(F)(F)F)cc3)cc2C)C1=O (mixture of isomers) [6-016] | 1 (Herbicidal ratio of 5% or higher and lower than 20%) | 5 (Herbicidal ratio of 90% or more (almost completely withered)) | 3 (Herbicidal ratio of 40% or higher and lower than 70%) | 5 (Herbicidal ratio of 90% or more (almost completely withered)) | 0 (Herbicidal ratio of 5% or lower (almost no effect)) | 0 (Herbicidal ratio of 5% or lower (almost no effect)) | 0 (Herbicidal ratio of 5% or lower (almost no effect)) | 5 (Herbicidal ratio of 90% or more (almost completely withered)) | 5 (Herbicidal ratio of 90% or more (almost completely withered)) | 0 (Herbicidal ratio of 5% or lower (almost no effect)) | 0 (Herbicidal ratio of 5% or lower (almost no effect)) | 0 (Herbicidal ratio of 5% or lower (almost no effect)) | 3 (Herbicidal ratio of 40% or higher and lower than 70%) | 5 (Herbicidal ratio of 90% or more (almost completely withered)) | – |
| Cc1cc(C)c(C2=C(O)CC(CC(=O)C3CC3)C2=O)c(C)c1 (stereo not shown) [2-017] | 4 (Herbicidal ratio of 70% or higher and lower than 90%) | 5 (Herbicidal ratio of 90% or more (almost completely withered)) | 5 (Herbicidal ratio of 90% or more (almost completely withered)) | 2 (Herbicidal ratio of 20% or higher and lower than 40%) | 3 (Herbicidal ratio of 40% or higher and lower than 70%) | 0 (Herbicidal ratio of 5% or lower (almost no effect)) | 0 (Herbicidal ratio of 5% or lower (almost no effect)) | 3 (Herbicidal ratio of 40% or higher and lower than 70%) | 5 (Herbicidal ratio of 90% or more (almost completely withered)) | 0 (Herbicidal ratio of 5% or lower (almost no effect)) | 1 (Herbicidal ratio of 5% or higher and lower than 20%) | 0 (Herbicidal ratio of 5% or lower (almost no effect)) | – | 5 (Herbicidal ratio of 90% or more (almost completely withered)) | – |
| CON=C(C)CC1CC(OS(=O)(=O)C2CC2)=C(c2c(C)cc(C)cc2C)C1=O (stereo not shown) [1-143] | – | – | 4 (Herbicidal ratio of 70% or higher and lower than 90%) | – | 1 (Herbicidal ratio of 5% or higher and lower than 20%) | – | – | – | 4 (Herbicidal ratio of 70% or higher and lower than 90%) | – | – | – | – | – | g: rapeseed, effect on crop (criteria 0-5) (rapeseed): 4 (Herbicidal ratio of 70% or higher and lower than 90%); G: Setaria viridis, herbicidal effect grade (Setaria viridis; 320 g/ha): 1 (Herbicidal ratio of 5% or higher and lower than 20%); Q: Galium spurium, herbicidal effect (criteria 0-5) (Galium spurium): 0 (Herbicidal ratio of 5% or lower (almost no effect)); c: corn, effect on crop (criteria 0-5) (corn): 3 (Herbicidal ratio of 40% or higher and lower than 70%); N: Amaranthus retroflexus, herbicidal effect (criteria 0-5) (Amaranthus retroflexus): 1 (Herbicidal ratio of 5% or higher and lower than 20%); f: beet, effect on crop (criteria 0-5) (beet): 0 (Herbicidal ratio of 5% or lower (almost no effect)); L: Apera spica-venti, herbicidal effect (criteria 0-5) (Apera spica-venti): 5 (Herbicidal ratio of 90% or more (almost completely withered)); d: soybean, effect on crop (criteria 0-5) (soybean): 1 (Herbicidal ratio of 5% or higher and lower than 20%); M: Abutilon theophrasti, herbicidal effect (criteria 0-5) (Abutilon theophrasti): 1 (Herbicidal ratio of 5% or higher and lower than 20%); O: Chenopodium album, herbicidal effect (criteria 0-5) (Chenopodium album [3]): 0 (Herbicidal ratio of 5% or lower (almost no effect)); F: Digitaria ciliaris, herbicidal effect grade (Digitaria ciliaris; 320 g/ha): 1 (Herbicidal ratio of 5% or higher and lower than 20%) |
| CCc1cc(C#C[Si](C)(C)C)cc(C)c1C1=C(O)CC(CC(C)=NOC)C1=O (mixture of isomers) [6-008] | 0 (Herbicidal ratio of 5% or lower (almost no effect)) | 5 (Herbicidal ratio of 90% or more (almost completely withered)) | 5 (Herbicidal ratio of 90% or more (almost completely withered)) | 3 (Herbicidal ratio of 40% or higher and lower than 70%) | 5 (Herbicidal ratio of 90% or more (almost completely withered)) | 0 (Herbicidal ratio of 5% or lower (almost no effect)) | 0 (Herbicidal ratio of 5% or lower (almost no effect)) | 3 (Herbicidal ratio of 40% or higher and lower than 70%) | 5 (Herbicidal ratio of 90% or more (almost completely withered)) | 1 (Herbicidal ratio of 5% or higher and lower than 20%) | 0 (Herbicidal ratio of 5% or lower (almost no effect)) | – | 0 (Herbicidal ratio of 5% or lower (almost no effect)) | 5 (Herbicidal ratio of 90% or more (almost completely withered)) | Q: Galium spurium, herbicidal effect grade (Galium spurium): 0 (Herbicidal ratio of 5% or lower (almost no effect)) |
